Common to all, as to test: biochemical
What all share (details): read-out: Dundee KSS % inhibition at 1uM

Assay [1] has as its target T1, JNK3 (Homo sapiens, UniProt P53779).
T1 construct: gene MAPK10
The procedure: (§1) The METi and RAFi were screened against kinase panels (SelectScreen, Invitrogen; University of Dundee, Division of Signal Transduction Therapy, UK; Upstate Biotechnology/Millipore, Billerica, MA). In these selectivity assays the concentration of ATP was set to the Km value of ATP for each kinase tested to allow for a relative potency comparison between the various kinases. The compounds were tested at 1 µM final concentration. […] (A) Kinase selectivity screen (KSS) performed at Upstate Biotechnology. […] (B) KSS performed at University of Dundee (Division of Signal Transduction Therapy). […] (PDF) Click here for additional data file.

The target of assay [2] is T2, P70S6K (Homo sapiens, UniProt P23443).
T2 construct: gene RPS6KB1
The procedure:
as §1

For assay [3], the target named is CDK2/CyclinA (Homo sapiens, UniProt P24941). As to the method:
as §1

Assay [4] concerns the target T3, JNK/SAPK1c (Homo sapiens, UniProt P45983).
T3 construct: gene MAPK8
The procedure:
as §1

Assay [5] addresses NEK7 (Homo sapiens, UniProt Q8TDX7). As to the method: as §1
Assay [6] deals with chicken SRC (Gallus gallus, UniProt P00523). As to the method:
as §1

Assay [7] deals with T4, MLCK (Homo sapiens, UniProt Q15746).
T4 construct: gene MYLK
The procedure: as §1

For assay [8], the target named is T5, AuroraC (Homo sapiens, UniProt Q9UQB9).
T5 construct: gene AURKC
The procedure: as §1

The target in assay [9] is T6, rat ROCKII (Rattus norvegicus, UniProt Q62868).
T6 construct: gene Rock2
The procedure: as §1

NEK7, sequence (Q8TDX7 whole entry): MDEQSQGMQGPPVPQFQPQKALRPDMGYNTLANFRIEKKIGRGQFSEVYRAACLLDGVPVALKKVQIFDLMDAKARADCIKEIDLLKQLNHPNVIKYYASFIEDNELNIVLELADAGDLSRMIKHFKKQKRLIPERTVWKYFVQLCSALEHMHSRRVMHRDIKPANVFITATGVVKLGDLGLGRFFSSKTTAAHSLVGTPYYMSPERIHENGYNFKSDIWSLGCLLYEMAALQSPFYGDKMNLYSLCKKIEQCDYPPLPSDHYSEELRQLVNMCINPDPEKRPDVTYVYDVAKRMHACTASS
T4 sequence (Q15746 whole entry): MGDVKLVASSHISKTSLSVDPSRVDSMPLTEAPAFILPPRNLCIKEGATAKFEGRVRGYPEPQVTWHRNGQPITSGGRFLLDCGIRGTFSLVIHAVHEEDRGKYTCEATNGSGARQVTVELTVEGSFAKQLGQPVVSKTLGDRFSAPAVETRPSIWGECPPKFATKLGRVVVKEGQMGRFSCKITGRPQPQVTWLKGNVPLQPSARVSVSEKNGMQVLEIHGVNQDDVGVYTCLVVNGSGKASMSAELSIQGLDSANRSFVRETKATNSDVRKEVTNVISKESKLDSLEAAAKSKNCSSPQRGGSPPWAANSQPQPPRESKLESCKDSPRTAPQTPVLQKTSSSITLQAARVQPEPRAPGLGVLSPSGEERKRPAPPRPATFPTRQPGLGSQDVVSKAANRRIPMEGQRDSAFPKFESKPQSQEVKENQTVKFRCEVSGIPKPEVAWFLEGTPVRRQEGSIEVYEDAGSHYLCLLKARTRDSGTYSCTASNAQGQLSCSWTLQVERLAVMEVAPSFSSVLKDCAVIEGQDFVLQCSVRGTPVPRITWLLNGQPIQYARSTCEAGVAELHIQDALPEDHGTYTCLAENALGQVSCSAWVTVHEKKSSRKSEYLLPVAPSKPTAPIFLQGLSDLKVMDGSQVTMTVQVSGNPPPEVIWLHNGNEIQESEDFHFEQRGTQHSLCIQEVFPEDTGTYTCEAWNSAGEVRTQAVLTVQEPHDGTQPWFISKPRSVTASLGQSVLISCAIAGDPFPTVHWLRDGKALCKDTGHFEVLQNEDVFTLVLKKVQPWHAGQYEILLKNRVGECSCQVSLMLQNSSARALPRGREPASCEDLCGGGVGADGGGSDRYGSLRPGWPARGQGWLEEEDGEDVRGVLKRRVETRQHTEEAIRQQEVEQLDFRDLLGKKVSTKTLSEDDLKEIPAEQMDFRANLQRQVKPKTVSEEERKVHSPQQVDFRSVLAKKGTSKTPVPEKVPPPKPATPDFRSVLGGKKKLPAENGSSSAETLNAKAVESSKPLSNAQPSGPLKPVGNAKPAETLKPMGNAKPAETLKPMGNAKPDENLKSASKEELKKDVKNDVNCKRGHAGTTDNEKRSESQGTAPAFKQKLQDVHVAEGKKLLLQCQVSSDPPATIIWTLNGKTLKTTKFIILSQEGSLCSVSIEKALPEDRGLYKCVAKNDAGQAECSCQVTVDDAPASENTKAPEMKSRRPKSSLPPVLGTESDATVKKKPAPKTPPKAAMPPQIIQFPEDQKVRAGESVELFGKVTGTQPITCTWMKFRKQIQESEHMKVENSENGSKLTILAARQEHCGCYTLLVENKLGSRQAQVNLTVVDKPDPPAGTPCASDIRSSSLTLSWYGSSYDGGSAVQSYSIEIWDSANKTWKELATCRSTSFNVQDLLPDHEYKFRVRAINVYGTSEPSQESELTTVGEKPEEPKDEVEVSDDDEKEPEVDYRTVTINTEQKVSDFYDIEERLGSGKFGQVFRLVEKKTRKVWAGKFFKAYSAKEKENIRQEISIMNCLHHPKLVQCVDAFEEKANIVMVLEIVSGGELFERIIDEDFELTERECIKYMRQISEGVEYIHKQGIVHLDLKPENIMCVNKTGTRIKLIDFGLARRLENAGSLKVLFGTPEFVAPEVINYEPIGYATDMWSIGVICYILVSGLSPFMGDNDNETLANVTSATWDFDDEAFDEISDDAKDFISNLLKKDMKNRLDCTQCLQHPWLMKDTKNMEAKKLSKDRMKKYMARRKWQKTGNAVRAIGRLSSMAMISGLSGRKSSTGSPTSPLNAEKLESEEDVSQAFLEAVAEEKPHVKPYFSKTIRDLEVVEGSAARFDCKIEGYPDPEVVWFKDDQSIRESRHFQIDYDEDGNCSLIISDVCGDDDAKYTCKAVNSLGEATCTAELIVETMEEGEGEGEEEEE
T1 sequence (P53779 whole entry): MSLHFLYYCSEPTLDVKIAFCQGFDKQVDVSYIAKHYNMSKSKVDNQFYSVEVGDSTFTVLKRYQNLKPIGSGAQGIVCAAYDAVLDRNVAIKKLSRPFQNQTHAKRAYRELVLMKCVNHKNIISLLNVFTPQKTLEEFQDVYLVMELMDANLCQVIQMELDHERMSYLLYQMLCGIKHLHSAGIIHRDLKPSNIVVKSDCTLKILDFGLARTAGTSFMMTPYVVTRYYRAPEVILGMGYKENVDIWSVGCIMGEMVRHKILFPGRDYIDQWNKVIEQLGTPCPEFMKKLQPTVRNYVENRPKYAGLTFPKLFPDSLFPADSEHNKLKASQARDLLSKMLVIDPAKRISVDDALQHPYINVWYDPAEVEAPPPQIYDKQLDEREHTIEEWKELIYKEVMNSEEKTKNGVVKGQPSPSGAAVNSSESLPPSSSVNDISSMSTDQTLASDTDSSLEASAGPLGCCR
T2 sequence (P23443 whole entry): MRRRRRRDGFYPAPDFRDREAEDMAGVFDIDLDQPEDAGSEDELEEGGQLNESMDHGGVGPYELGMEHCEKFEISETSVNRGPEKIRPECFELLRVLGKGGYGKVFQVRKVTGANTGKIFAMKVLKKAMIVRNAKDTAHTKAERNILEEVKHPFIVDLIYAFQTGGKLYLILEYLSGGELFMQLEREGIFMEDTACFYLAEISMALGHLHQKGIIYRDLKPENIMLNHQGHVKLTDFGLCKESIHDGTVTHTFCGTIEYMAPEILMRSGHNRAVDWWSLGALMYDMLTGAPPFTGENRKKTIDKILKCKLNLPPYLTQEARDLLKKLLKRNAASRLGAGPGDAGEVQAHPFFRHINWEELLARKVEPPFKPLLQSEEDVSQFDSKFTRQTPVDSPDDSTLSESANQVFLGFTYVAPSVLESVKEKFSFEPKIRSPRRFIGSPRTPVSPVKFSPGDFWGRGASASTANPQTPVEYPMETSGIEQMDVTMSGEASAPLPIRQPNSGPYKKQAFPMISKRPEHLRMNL
T3 sequence (P45983 whole entry): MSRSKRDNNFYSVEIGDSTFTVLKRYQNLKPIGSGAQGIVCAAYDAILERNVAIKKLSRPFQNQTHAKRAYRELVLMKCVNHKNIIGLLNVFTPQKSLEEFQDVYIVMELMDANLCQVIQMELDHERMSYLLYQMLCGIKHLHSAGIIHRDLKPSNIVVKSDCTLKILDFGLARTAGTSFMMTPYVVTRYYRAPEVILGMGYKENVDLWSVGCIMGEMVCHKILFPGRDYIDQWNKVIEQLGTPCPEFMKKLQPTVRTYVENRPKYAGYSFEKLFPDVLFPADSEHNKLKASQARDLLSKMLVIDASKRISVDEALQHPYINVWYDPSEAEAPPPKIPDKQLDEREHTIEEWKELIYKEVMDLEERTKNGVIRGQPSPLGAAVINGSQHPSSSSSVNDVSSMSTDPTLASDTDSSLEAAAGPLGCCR
T6 sequence (Q62868 whole entry): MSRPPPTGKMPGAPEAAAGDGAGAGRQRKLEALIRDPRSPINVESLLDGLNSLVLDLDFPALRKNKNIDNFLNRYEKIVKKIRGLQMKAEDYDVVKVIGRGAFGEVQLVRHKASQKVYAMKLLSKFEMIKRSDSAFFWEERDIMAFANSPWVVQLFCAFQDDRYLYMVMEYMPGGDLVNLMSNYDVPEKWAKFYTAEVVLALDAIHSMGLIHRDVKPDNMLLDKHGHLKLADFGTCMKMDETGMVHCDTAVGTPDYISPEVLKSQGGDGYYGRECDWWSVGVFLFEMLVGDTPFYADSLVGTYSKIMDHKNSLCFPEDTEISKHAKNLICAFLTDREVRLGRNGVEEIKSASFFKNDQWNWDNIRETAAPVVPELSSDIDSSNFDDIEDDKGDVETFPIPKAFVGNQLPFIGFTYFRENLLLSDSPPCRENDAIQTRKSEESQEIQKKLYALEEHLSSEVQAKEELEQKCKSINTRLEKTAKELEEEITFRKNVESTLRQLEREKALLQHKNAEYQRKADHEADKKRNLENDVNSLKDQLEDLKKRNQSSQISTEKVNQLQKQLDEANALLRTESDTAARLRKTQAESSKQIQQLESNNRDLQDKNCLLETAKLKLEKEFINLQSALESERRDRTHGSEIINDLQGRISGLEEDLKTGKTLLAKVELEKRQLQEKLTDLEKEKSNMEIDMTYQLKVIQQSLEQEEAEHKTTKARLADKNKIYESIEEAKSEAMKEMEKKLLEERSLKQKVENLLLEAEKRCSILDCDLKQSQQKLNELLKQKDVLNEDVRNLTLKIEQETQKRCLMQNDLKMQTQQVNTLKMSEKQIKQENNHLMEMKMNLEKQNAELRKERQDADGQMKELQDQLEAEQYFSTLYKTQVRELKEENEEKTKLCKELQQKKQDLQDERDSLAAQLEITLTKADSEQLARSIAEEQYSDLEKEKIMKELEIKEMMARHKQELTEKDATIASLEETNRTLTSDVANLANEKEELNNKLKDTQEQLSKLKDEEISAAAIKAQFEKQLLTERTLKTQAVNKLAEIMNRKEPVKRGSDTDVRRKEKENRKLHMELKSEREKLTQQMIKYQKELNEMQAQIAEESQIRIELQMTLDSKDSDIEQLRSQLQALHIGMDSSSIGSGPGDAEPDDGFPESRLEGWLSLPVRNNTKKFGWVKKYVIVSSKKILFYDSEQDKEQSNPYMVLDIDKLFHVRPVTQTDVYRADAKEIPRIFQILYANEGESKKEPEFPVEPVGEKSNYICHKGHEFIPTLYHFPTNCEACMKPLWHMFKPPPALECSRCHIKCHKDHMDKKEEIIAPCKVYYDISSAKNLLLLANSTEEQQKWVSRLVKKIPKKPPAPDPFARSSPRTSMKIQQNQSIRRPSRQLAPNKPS

For the compound `OCCn1cc(-c2cnc3nnn(Cc4ccc5ncccc5c4)c3n2)cn1` [METi, PF-04217903], the inhibition at 1 µM in assay [1] is -2.36%; in [2], -0.67%; in assay [3], 2.24%; in [4], 4.04%; in [5], -7.5%; in assay [6], -11.5%. For the same compound, the inhibition at 1 µM in assay [7] was 9.24%; in assay [8], 6.48%; in [9], 12.8%.

Values taken from paper PMC3382171 (PLoS ONE, 2012).
